Results on four compounds are retold here after patent publication US20180235942A1 (priority 2015, published 2018).

Series [1] deals with healthy elderly male and female subjects. On the set-up: species or system human. The settings on record: in vivo, po.
Another series relates to insomnia. The settings on record: three-month efficacy study; cited from earlier work.
In series [2] the test system is normal healthy adult subjects. Put plainly: Intravenous and oral tolerability and safety in healthy adult subjects. The format is in vivo, human. From the text:
There was a washout of 4 days between each treatment period.
The study included healthy, male and female subjects between 18 and 45 years of age within 30% of ideal weight. The subjects in Part 1 of the study could be of either gender, but within Part 2 of the study there had to be at least 4 subjects of each gender.

In series [3] the test system is healthy, male and female subjects. Kind of series: Driving performance study, real driving on the road after evening or middle-of-the-night dosing. The format is in vivo, human. The conditions noted are these: for effect on driving: gaboxadol 15 mg; for effect on memory test, body sway, DSST or critical tracking: in vivo. The text has this:
The study participants included healthy, male and female subjects between 21 and 45 years of age, with a valid drivers license for at least 3 years.
Following a cognitive and psychomotor test battery, the driving test started at 9 am and lasted for one hour.

The next series is described as follows: clinical. The conditions noted are these: both, human, in vivo.
In series [4] the test system is patients with a history of drug abuse. The conditions noted are these: cited from earlier work.
The test system of series [5] is healthy adults subjected to a 5-hour sleep restriction. Put plainly: Daytime performance after 5-hour sleep restriction (MSLT, SWS, KSS). Format: in vivo, human. Here is the method:
The study included a 2-night single-blind placebo run-in period, a 4-night double-blind treatment period during which sleep was restricted to 5 hours and a 2-night single-blind placebo run-out period. The study included healthy male and female volunteers 18 to <55 years of age.
The primary endpoints included observations based on the Multiple Sleep Latency Test (MSLT) and Slow Wave Sleep (SWS) assessment.

[6] abbreviates: middle-of-the-night administration, zolpidem 10 mg.

Read-outs that look alike come from different tables or passages of the source.

Regarding `CCN(CC)CCN1C(=O)CN=C(c2ccccc2F)c2cc(Cl)ccc21` [Flurazepam], the “residual effect on Choice Reaction Time and Critical Flicker Fusion” value in series [1] is on record as “showed significant effect”.

In the case of `Oc1noc2c1CCNC2` [gaboxadol, 4,5,6,7-tetrahydroisoxazolo [5,4-c]pyridine-3-ol], in the series with insomnia, the “effects in sleep onset and sleep maintenance” value is “failed to show significant effects”. In addition, the “most common clinical adverse experiences” value in series [2] (both parts of the study) is “somnolence and dizziness”. For the same compound, the serious adverse experiences entry in series [2] (both parts of the study) is on record as “no serious adverse experiences reported”. Further, the tolerability entry in series [2] (single intravenous doses of 5 and 10 mg, single oral doses from 2.5 to 20 mg) is “generally well tolerated”; in series [3] (evening and middle-of-the-night dose), “well tolerated”. Moreover, the “effect on driving compared with 0.05% blood alcohol concentration” value in series [3] (evening dose, 15 mg) is listed as “less than the effect observed at a 0.05% blood alcohol concentration”. The effect on driving entry in series [3] (evening dose, zopiclone 7.5 mg) is “statistically significant effect”; in series [3] (setting [6]) it was “clinically relevant impairing effect”. For the same compound, the “most frequent adverse events” value in series [3] (evening treatment) was “headache and somnolence”; in series [3] (middle-of-the-night treatment), “dizziness, nausea and somnolence”. Also, the “effect on memory test, body sway, DSST or critical tracking” value in series [3] is on record as “no effect”. The compound further came in with a bioavailability in the series “clinical” of 92%. The psychiatric adverse events result in series [4] is given as “steep increase in psychiatric adverse events”. Besides, the “daytime sleepiness versus placebo (MSLT)” value in series [5] (15 mg, Sleep Restriction period, p=0.047, 1 sided) is “significantly less daytime sleepiness”. Also, the “MSLT, longer than placebo on average” value in series [5] (15 mg, last two Sleep Restriction days) stood at 2.01 min. Also, the “slow wave sleep (SWS) versus placebo” value in series [5] (Sleep Restriction period, p<0.001, 1 sided) is given as “significantly more SWS”. Moreover, the “biophysiological measures of stress (heart rate variability, cortisol levels, catecholamine levels, body temperature) versus placebo” value in series [5] (in vivo) is on record as “no differences”. In addition, in series [5] (in vivo), the “daytime performance, neurocognitive battery effect sizes” value was “no strong evidence that gaboxadol improves daytime performance”. In addition, the “Karolinska Sleepiness Score (KSS), less than placebo on average” value in series [5] (last two Sleep Restriction days, p=0.058, 1 sided, LDA model) worked out at 0.68. The “SWS, longer than placebo on average” value in series [5] (last two Sleep Restriction nights) amounted to 20.53 min. Further, in series [1], the “residual effect on Choice Reaction Time and Critical Flicker Fusion” value is “did not show residual effect”. The “residual effects on other measurements (MSLT, DSST, Tracking, Memory tests, Body Sway, Leeds Sleep Evaluation Questionnaire)” value in series [1] is recorded as “did not show any signs of residual effects”. The “Renal clearance (CLR)” value (human, in vivo) is given as “greater than glomerular filtration rate”. Besides, the “steady-state volume of distribution (Vss)” value (human, in vivo, iv) is “moderate”. For the same compound, the “systemic clearance (CL)” value (human, in vivo, iv) was “moderate”. The “AUC0-inf and Cmax versus dose” value is “increased with increasing dose” (oral administration) and “increased with increasing dose” (single intravenous doses).

For the compound `Cc1ccc(-c2nc3ccc(C)cn3c2CC(=O)N(C)C)cc1` [zolpidem], the effect on driving entry in series [3] (setting [6]) is listed as “numerically greater effect”.

Consider `CN1CCN(C(=O)OC2c3nccnc3C(=O)N2c2ccc(Cl)cn2)CC1` (stereo not shown) [zopiclone], for which the effect on driving entry in series [3] (evening dose, zopiclone 7.5 mg) was “numerically greater effect”. In series [3], the “effect on memory test, body sway, DSST or critical tracking” value is “had effect on several of these tests”.
